In US4163058A, “Derivatives of 5,5-diphenylhydantoin exhibiting enhanced solubility and the therapeutic use thereof” (INTERX Research Corporation, priority 1977, dated 1979):
Where two headings read alike, the source gives them in different places. One block for each molecule: values may come before it.

Key:
[1] = aqueous solubility (compound added in increments to water until solubility was determined); format: physicochemical
Protocol: The compound was added in increments to water until solubility was determined.

[2] = 37° C.; cited from earlier work
[3] = cited from earlier work
[4] = aqueous; comparison value for the parent; cited from earlier work
[5] = oral, sodium salt; due to alkalinity of the dosage form; cited from earlier work
[6] = in vivo; cited from earlier work
[7] = in vivo, iv; cited from earlier work

solubility ([1]; in water): > 100 mg/mL | increase in aqueous solubility over diphenylhydantoin ([1]; versus diphenylhydantoin per se): ~5,000 fold
Structure (SMILES): CN(C)CC(=O)OCN1C(=O)NC(c2ccccc2)(c2ccccc2)C1=O [3-(N,N-dimethylglycyloxymethyl)diphenylhydantoin methanesulfonate]

Structure (SMILES): O=C1NC(=O)C(c2ccccc2)(c2ccccc2)N1 [5,5-diphenylhydantoin]
solubility [2]: less than 2 mg. in 100 ml | release patterns ([3]; both in vitro and in vivo): often produces unpredictable and erractic release patterns | bioavailability ([3]; per se as well as from pharmaceutical dosage forms): low bioavailability | solubility of the parent specie [4]: less than 0.02 mg/ml

Structure (SMILES): O=C1NC(=O)C(c2ccccc2)(c2ccccc2)N1.[Na]
gastric irritation [5]: frequently causes gastric irritation | precipitation at the injection site and release [6]: precipitate 5,5-diphenylhydantoin at the injection site leading to delayed and erractic 5,5-diphenylhydantoin release | precipitation and blood levels [7]: frequently leads to precipitation of 5,5-diphenylhydantoin as well as erractic blood levels
